# Patent US10179128B2, “Regimens for treating and preventing lysosomal disorders and degenerative disorders of the central nervous system” (Amicus Therapeutics, Inc., priority 2015, dated 2019)
# Numbering of substitutions follows the chain as printed. Counter-ions that a name gives are not always drawn.
# Columns and labels:
# [1] = Brain tissue washout / efflux half-life; format: in vivo
# From the text: To evaluate the potential therapeutic effect of a chaperone, the washout period can be examined to determine the length of time required to washout the inhibitor. Otherwise, enzyme that is successfully trafficked to the lysosome may not have optimal functionality because the chaperone, which also functions as a competitive inhibitor, can continue to compete with the substrate for the enzyme active site.
# [2] = target: T1, recombinant human GCase (rhGCase) (Homo sapiens, UniProt P04062); test: In vitro thermal stability assay of rhGCase (SYPRO Orange fluorescence); format: binding; conditions: 100 μM compound, neutral pH; enzyme alone approximately 53° C.
# T1 sequence (P04062 40-536): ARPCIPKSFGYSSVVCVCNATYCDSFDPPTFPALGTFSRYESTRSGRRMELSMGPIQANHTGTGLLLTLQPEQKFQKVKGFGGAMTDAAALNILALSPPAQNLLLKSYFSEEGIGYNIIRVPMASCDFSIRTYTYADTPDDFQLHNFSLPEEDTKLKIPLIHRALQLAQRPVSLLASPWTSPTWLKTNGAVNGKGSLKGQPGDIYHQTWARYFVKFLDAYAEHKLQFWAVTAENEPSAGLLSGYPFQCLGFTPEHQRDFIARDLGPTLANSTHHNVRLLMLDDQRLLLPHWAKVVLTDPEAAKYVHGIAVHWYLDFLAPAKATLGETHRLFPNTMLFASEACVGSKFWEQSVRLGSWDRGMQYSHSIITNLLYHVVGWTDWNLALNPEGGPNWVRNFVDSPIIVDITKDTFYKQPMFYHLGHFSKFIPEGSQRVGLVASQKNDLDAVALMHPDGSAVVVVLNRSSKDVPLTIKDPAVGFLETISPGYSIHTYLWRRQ
# From the text: A dye (SYPRO® Orange) that fluoresces when it binds to hydrophobic regions of enzyme was used to assess stability, because unstable enzyme that loses its native conformation likely exposes internal hydrophobic amino acids, leading to an increase in fluorescence.
# GCase N370S = target: T2, GCase N370S (Homo sapiens, UniProt P04062, N409S); test: cell-based
# T2 sequence (P04062 40-536 N409S): T1 sequence (P04062 40-536) with N370S
# rhGCase = target: T3, rhGCase (Homo sapiens, UniProt P04062); conditions: rats
# T3 sequence (P04062 40-536): T1 sequence (P04062 40-536)
# [3] = Bioavailability (plasma as percent oral dose); format: in vivo
# pKa = format: physicochemical
# [4] = Blood-brain barrier penetration in mice, oral 30 mg/kg FBE; format: in vivo; conditions: for Kp / Cmax: mouse, oral, 30 mg/kg; for Kp: brain and plasma, read-out: Barin/Plasma Cmax (%); for Cmax: plasma
# From the text: The ability of a drug to penetrate the blood-brain barrier can be an important function. Without the capability of penetrating into the brain, the drug will not likely have a therapeutic effect in tissues in the brain.
# GCase = target: T4, GCase (Mus musculus, UniProt P17439); test: ED50 in brain; format: in vivo
# T4 construct: from tissue; host or cells: brain
# T4 sequence (P17439 20-515): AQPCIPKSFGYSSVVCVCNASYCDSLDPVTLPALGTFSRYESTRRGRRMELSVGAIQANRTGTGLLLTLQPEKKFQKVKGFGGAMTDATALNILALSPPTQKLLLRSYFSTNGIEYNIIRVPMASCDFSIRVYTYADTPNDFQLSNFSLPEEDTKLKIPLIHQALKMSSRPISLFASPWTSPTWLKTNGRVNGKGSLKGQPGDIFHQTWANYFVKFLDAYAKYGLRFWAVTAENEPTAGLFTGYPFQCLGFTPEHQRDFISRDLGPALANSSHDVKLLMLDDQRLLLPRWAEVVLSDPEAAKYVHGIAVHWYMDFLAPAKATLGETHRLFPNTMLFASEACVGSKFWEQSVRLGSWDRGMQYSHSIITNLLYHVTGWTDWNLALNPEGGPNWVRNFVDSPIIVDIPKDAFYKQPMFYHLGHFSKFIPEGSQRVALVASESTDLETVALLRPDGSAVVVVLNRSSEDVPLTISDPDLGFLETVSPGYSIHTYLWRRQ
# [5] = Blood-brain barrier penetration in rats, single 100 mg/kg FBE p.o.; format: in vivo; conditions: rat, brain and plasma, po, exposure in nM-hr, read-out: total brain exposure as % of plasma exposure
# L444P mice [6] = test: Example 8: additional dosing regimens of Compound 3 in L444P mice; format: in vivo
# Procedure: The purpose of this study was to improve dosing choices based on data collected from Example 7. Specific tissues of L444P mice that were measured were the liver, brain, spleen, bone, marrow, and plasma. […] In Example 8, two dosing strategies were used, fixed dose and constant weekly dose. All doses were administered orally in drinking water. Fixed dose mice were given 1 mg/kg FBE either daily, two days a week, or three days a week. Constant weekly dose mice were given a total of 7 mg/kg FBE per week, either three days a week (Monday, Wednesday, Friday), two days a week (Monday, Thursday), or daily. For example, mice receiving 3 doses per week (Monday, Wednesday, Friday) would receive 2.33 mg/kg FBE in each dose, while mice receiving doses twice a week (Monday, Thursday) would receive 3.5 mg/kg FBE per dose.
# L444P mice [7] = test: Comparison of Examples 6-8 in L444P mice; format: in vivo
# From the text: Changes in brain, liver, and spleen GCase activity were compared across the studies of Examples 6-8. In FIGS. 20 and 21, C1 denotes the study from Example 6, C2 denotes the study from Example 7, and C3 denotes the study from Example 8.
# L444P mice [8] = test: Example 6: daily oral dosing of Compound 3 in L444P mice; format: in vivo
# Procedure: (§1) The purpose of this study was to first confirm that the GlcSph substrate was elevated in N370S and L444P mutant mouse models.
# (§2) Both compounds were administered daily via an oral route.
# L444P mice [9] = test: Example 7: daily dosing of Compound 3 in L444P mice over four weeks, fixed and ascending doses in drinking water; format: in vivo
# Procedure: Both fixed and ascending dosing schemes were used and were administered in drinking water. Four fixed dose groups, 0.01 mg/kg FBE, 0.1 mg/kg FBE, 1 mg/kg FBE, and 10 mg/kg FBE were used. A fifth group, which used an ascending dose, was also included, and it began at 0.01 mg/kg FBE and increased by 10-fold each week, with a dose during the final week of 10 mg/kg FBE.
# N370S mice = test: Example 6: daily oral dosing of IFG tartrate in N370S mice; format: in vivo
# Procedure: as §1, §2
# [10] = mice, oral 30 mg/kg FBE, brain tissue
# [11] = all dose groups, Day 1 and Day 30 after 24-hour washout
# [12] = ascending 0.01-10 mg/kg FBE dose
structure (smiles),measurement,setting,value
O[C@H]1[C@H](O)CNC[C@@H]1C(F)F [Compound 1],half-life,[1],~1.4 h
same,temperature of peak fluorescence (unfolding),[2],65 °C
same,Emax,GCase N370S,106%
same,normalized GCase activity in plasma versus rhGCase alone,rhGCase; 3 mg/kg oral gavage 30 minutes before IV rhGCase,sustained a higher normalized GCase activity in plasma longer
same,rhGCase western blot band versus no chaperone,"rhGCase; 3 mg/kg, 5 minute and 10 minute intervals",a more intense protein band
same,bioavailability,[3],106%
same,pKa,pKa,7.1
same,Brain Cmax at 30 mg/kg,[4]; [10],9.7 µM
same,Kp,[4],0.115
same,Cmax,[4],84.5 µM
same,ED50,GCase,5.2 mg/kg
Cl.O[C@H]1[C@H](O)CNC[C@@H]1C(F)F [Compound 2],crossing of the blood-brain barrier,[4]; mice,capable of crossing the blood-brain barrier
same,Brain Cmax at 30 mg/kg,[4]; [10],9.7 µM
O=C(O)/C=C/C(=O)O.O[C@H]1[C@H](O)CNC[C@@H]1C(F)F [Compound 3],Kp,[5],0.85
same,brain GCase activity versus vehicle,L444P mice [6]; 1 mg/kg FBE daily dose,increased and was significant
same,liver GlcSph concentration versus vehicle,L444P mice [6]; 1 mg/kg FBE daily dose,significant reduction
same,spleen GlcSph concentration versus vehicle,L444P mice [6]; 1 mg/kg FBE daily dose,significant reduction
same,plasma concentration of GlcCer,L444P mice [6]; across all doses,no significant differences
same,brain GCase activity,"L444P mice [7]; 0-10 mg/kg FBE ascending dose, studies of Examples 6 and 7",increased
same,brain GCase activity,"L444P mice [7]; 1 mg/kg FBE dose, Example 7 and Example 8",increased
same,liver GCase activity,"L444P mice [7]; 1 mg/kg FBE dosing regimens, Example 7 and Example 8",elevated
same,brain GlcSph level versus vehicle,L444P mice [7]; 10 mg/kg FBE,increased level of GlcSph over the vehicle
same,brain GlcSph level versus vehicle,L444P mice [7]; ascending dose (0-10 mg/kg FBE),increased level of GlcSph over the vehicle
same,GlcSph substrate level change in the spleen,"L444P mice [7]; ascending dose (0-10 mg/kg FBE) and 1 mg/kg FBE dose, Examples 6-8",significant
same,liver GCase activity,"L444P mice [7]; ascending dose, Example 6 and Example 7",higher GCase activity
same,enhancement of GCase activity in liver,L444P mice [8]; 10 mg/kg FBE daily,7.6 fold
same,GlcSph in spleen versus control,L444P mice [8]; 10 mg/kg FBE daily oral,significant reduction of GlcSph
same,enhancement of GCase activity in brain,"L444P mice [8]; 10 mg/kg FBE daily, almost equivalent to wild-type activity",2.8 fold
same,"GCase activity in brain, liver and spleen versus vehicle",L444P mice [9]; 0.01 mg/kg FBE and 0.1 mg/kg FBE,did not show significant differences
same,brain GlcSph versus vehicle,L444P mice [9]; 1 mg/kg FBE,increase in GlcSph
same,liver GlcSph versus vehicle,L444P mice [9]; 1 mg/kg FBE,decrease in GlcSph
same,spleen GlcSph versus vehicle,L444P mice [9]; 1 mg/kg FBE,decrease in GlcSph
same,increase in brain GCase activity versus vehicle,L444P mice [9]; 1 mg/kg FBE daily,almost a two-fold increase
same,increase in liver GCase activity versus vehicle,L444P mice [9]; 1 mg/kg FBE daily,5 fold
same,increase in spleen GCase activity versus vehicle,L444P mice [9]; 1 mg/kg FBE daily,two-fold increase
same,brain GlcCer concentration versus vehicle,"L444P mice [9]; 1 mg/kg FBE, after 30 days",No significant difference
same,plasma GlcCer versus vehicle,L444P mice [9]; [11],no significant increases or decreases
same,plasma GlcSph versus vehicle,L444P mice [9]; [11],no significant increases or decreases
same,liver GlcCer concentration versus vehicle,"L444P mice [9]; all dose groups, after 30 days",No significant differences
same,brain GlcSph concentration versus vehicle,L444P mice [9]; [12],increase in substrate concentration
same,increase in brain GCase activity versus vehicle,L444P mice [9]; [12],about three-fold
same,increase in liver GCase activity versus vehicle,L444P mice [9]; [12],about 8 fold
same,increase in spleen GCase activity versus vehicle,L444P mice [9]; [12],about 4 fold
same,spleen GlcSph concentration versus vehicle,L444P mice [9]; [12],reduction in concentration
same,brain GlcCer concentration versus vehicle,"L444P mice [9]; ascending dose, after 30 days",increased
"OC[C@H]1CNC[C@@H](O)[C@@H]1O [IFG tartrate, isofagomine tartrate]",Kp,[5],0.29
same,GlcSph in liver versus control,N370S mice; 100 mg/kg FBE daily oral,reduction in GlcSph substrate
same,GlcSph in spleen versus control,N370S mice; 100 mg/kg FBE daily oral,significant reduction of GlcSph
same,reduction in bone GlcSph concentration,N370S mice; bone,31%
same,reduction of GlcSph in marrow,N370S mice; marrow,45%
same,crossing of the blood-brain barrier,[4]; mice,capable of crossing the blood-brain barrier
same,peak compound concentration in brain,"[4]; mice, oral 30 mg/kg FBE, brain tissue, value in nM",30 nM
"OC[C@H]1CNC[C@@H](O)[C@@H]1O [Isofagomine, isofagomine, reference compound]",Brain tissue efflux (half-life),[1],2.9 h
same,half-life,[1],~3 h
same,bioavailability,[3],53%
same,pKa,pKa,8.4
same,Brain Cmax at 30 mg/kg,[4]; [10],0.3 µM
same,Kp,[4],0.0165
same,Cmax,[4],17.5 µM
same,ED50,GCase,56.4 mg/kg
